From US10350206B2, “Benzyl substituted indazoles as BUB1 inhibitors” (Bayer Pharma Aktiengesellschaft, priority 2014, dated 2019) come the findings set out here.

Where a name gives a salt, the structure may show the parent alone. Read-outs that look alike come from different tables or passages of the source.

A word on the IC50: it is the concentration that gives 50% inhibition.

Data set [1] in a line: Stability in buffer at various pH values (HPLC detection). It counts as physicochemical. The note with it: 37° C., remaining prodrug; for Stability pH 4: % Test Compound after 4 h [F(t = 4 h) × 100/F(t = 0 h)]: pH 4 buffer; for Stability pH 7.4: % Test Compound after 4 h [F(t = 4 h) × 100/F(t = 0 h)]: pH 7.4 buffer. The procedure: Stability in Buffer at Various pH Values (HPLC Detection)
0.3 mg of the test compound was solved in 0.1 ml dimethylsulfoxide and 0.4 ml acetonitrile. For complete dissolution the HPLC vial with the sample solution was sonified for about 20 seconds. Then 1.0 ml of the respective buffer solution was added and the sample was again treated in the ultrasonic bath.
• pH 4.0: Fluka buffer, Order No. 33643 (11.76 g citric acid, 2.57 g sodium chloride and 2.72 g sodium hydroxide) • pH 7.4: 90 g of sodium chloride, 13.61 g of potassium dihydrogen phosphate and 83.35 g of 1 M sodium hydroxide solution were made up to 1 L with Millipore water and then diluted 1:10. • 10 μl portions of the sample solution were analysed by HPLC at different times (0 h, 1 h, 2h, 4h and 24h) at 37° C. The peak areas in percentage were used for quantification. HPLC Method: • Agilent 1100 with DAD (G1315B), binary pump (G1312A), autosampler (G1329A), column oven (G1316A), thermostat (G1330B); column: Kromasil 100 C18, 250 mm×4 mm, 5 μm; column temperature: 37° C.; eluent A: water+5 ml of perchloric acid/litre, eluent B: acetonitrile. Gradient: • 0 min 98% A, 2% B→0-3.0 min 85% A, 15% B→3.0-8.0 min 50% A, 50% B→8.0-16.0 min 50% A, 50% B→16.0-20.0 min 10% A, 90% B→20.0-21.0 10% A, 90% B→21.0-24.0 min 98% A, 2% B→24.0-25.0 min 98% A, 2% B; flow rate: 1.5 ml/min; UV detection: 210 nm.
The ratios of the peak area (F) at different times in relation to the peak area at the starting point are shown in Table 3 for representative examples: […]

The target of data set [2] is T1, catalytic domain of human Bub1 (amino acids 704-1085) (Homo sapiens, UniProt O43683).
T1 construct: catalytic domain of human Bub1 (amino acids 704-1085); His6 (N); made in house; host or cells: Hi5 insect cells
The experiment in a line: Equilibrium probe competition assay (TR-FRET kinase binding assay). The note with it: read-out: Assay 5 IC50. The procedure:
The half-life of prodrugs (Table 3) poses a challenge for the verification of their biological activity. The Bub1 enzymatic activity assay (as per Biological Assay 1.0 infra) requires a minimum reaction time of 60 minutes in order to be able to assess the inhibitory activity of the compounds. During this time typically 20% to 60% of the prodrugs have been already converted to their corresponding drugs at the pH of 7.5 at which the assay is performed. Ideally one would perform the biological assay at a pH at which the prodrug is stable (e.g. pH 4). […] Alternatively, an assay requiring shorter incubation times would better estimate the binding affinities of the prodrugs. […] Extrapolating the stability data from Tables 3 and 4, one would expect at this time point most of the compound present in the test solution to be the prodrug.
FIGS. 1 and 2 combine the results from Biological Assay 5 with those from Biological Assay 6. The binding affinities over time of drug and prodrug pairs are shown as pIC50 together with the prodrug stability, and the pIC50 to be expected if only the drug present in the sample was responsible for the activity in the assay. Extrapolating the pIC50 from these graphs to time 0 (at which 100% of prodrug is present in the sample), the actual affinity of the drug and prodrug can be inferred. Secondly, looking at the differences between expected and real pIC50 an estimate can be made about the contribution of the prodrug to the observed activity.
Biological Assay 5.0: Equilibrium Probe Competition Assay:
Bub1 binding affinity of compounds described in the present invention were quantified using a time-resolved fluorescence energy transfer (TR-FRET) kinase binding assay which measures displacement of the synthetic fluorescent probe 5-[({2-[2-({2-[1-(4-ethoxy-2,6-difluorobenzyl)-1H-indazol-3-yl]-4-(pyridin-4-ylamino)pyrimidin-5-yl}oxy)ethoxy]ethyl}carbamothioyl)amino]-2-(6-hydroxy-3-oxo-3H-xanthen-9-yl)benzoic acid (6-5-1) by the (recombinant) catalytic domain of human Bub1 (amino acids 704-1085). The enzyme was expressed in Hi5 insect cells with N-terminal 6×His/AviTag® sequences, purified by affinity- (Ni-NTA) and size exclusion chromatography and site-specific biotinylated ex-vivo using a commercially available kit (Avidity).
In a typical assay 11 different concentrations of each compound (0.1 nM, 0.33 nM, 1.1 nM, 3.8 nM, 13 nM, 44 nM, 0.15 μM, 0.51 μM, 1.7 μM, 5.9 μM and 20 μM) were tested in duplicate within the same microtiter plate. To this end, 100-fold concentrated compound solutions (in DMSO) were made by serial dilution (1:3.4) of freshly prepared 2 mM stocks in a clear low volume 384-well source microtiter plate (Greiner Bio-One, Frickenhausen, Germany), from which 50 nl of compounds were transferred into a black low volume test microtiter plate from the same supplier. Subsequently 2 μL of a solution containing biotinylated Bub1 (the final concentration of Bub1 was adjusted depending on the activity of the enzyme lot in order to be within the linear dynamic range of the assay: typically ˜[…] were used) and 1 nM Streptavidin Terbium Cryptate (Cisbio, No. 610SATLB) in aqueous assay buffer [50 mM Tris/HCl pH 7.5, 200 mM potassium chloride (KCl), 1.0 mM dithiothreitol (DTT), 0.1 mM sodium ortho-vanadate, 1% (v/v) glycerol, 0.01% (w/v) bovine serum albumine (BSA), 0.005% (v/v) Triton X-100 (Sigma), were added to the compounds in the test plate and the mixture was incubated for 15 min at 22° C. to allow pre-equilibration of the putative enzyme-inhibitor complexes before the start of the probe competition reaction, which was initiated by the addition of 3 μL 1.67-fold concentrated solution (in assay buffer) of 6-5-1 (final concentration: 1.5 nM). The resulting mixture (5 μL final volume) was incubated at 22° C. during 0, 15, 30, 60, 120, 240 and 1440 min. […]
On the technique in general: In TR-FRET formats the signal depends on donor and acceptor labels being close together.

Regarding `COc1cnccc1Nc1nc(-c2nn(Cc3c(F)cc(OCCOC(=O)[C@H](C)NC(=O)[C@@H](N)CCCCN)cc3F)c3ccccc23)ncc1OC` [Example 4-1-2, 2-{3,5-difluoro-4-[(3-{5-methoxy-4-[(3-methoxypyridin-4-yl)amino]pyrimidin-2-yl}-1H-indazol-1-yl)methyl]phenoxy}ethyl L-lysyl-L-alaninate, salt with trifluoroacetic acid], in data set [1], the “Stability pH 4: % Test Compound after 4 h [F(t = 4 h) × 100/F(t = 0 h)]” value (from here on “Stability pH 4: % Test Compound”) came to 100%. Besides, in data set [1], the “Stability pH 7.4: % Test Compound after 4 h [F(t = 4 h) × 100/F(t = 0 h)]” value (from here on “Stability pH 7.4: % Test Compound”) is 5%. Besides, the IC50 in data set [2] (Time 15 min) was 2.7 nM; in data set [2] (Time 30 min) it was 2.3 nM; in data set [2] (Time 60 min), 2.2 nM; in data set [2] (Time 90 min) it was 1.3 nM; in data set [2] (Time 120 min) it was 1 nM; in data set [2] (Time 240 min), 0.69 nM. In addition, the IC50 in data set [2] (Time 1440 min) was 0.36 nM.

In the case of `COc1cnc(-c2nn(Cc3c(F)cc(OCCOC(=O)[C@H](C)NC(=O)[C@H](N)CCCCN)cc3F)c3ccccc23)nc1Nc1ccnc(F)c1` [Example 4-1-3, 2-{3,5-difluoro-4-[(3-{4-[(2-fluoropyridin-4-yl)amino]-5-methoxypyrimidin-2-yl}-1H-indazol-1-yl)methyl]phenoxy}ethyl D-lysyl-L-alaninate, salt with trifluoroacetic acid], in data set [1], the “Stability pH 4: % Test Compound” value was determined as 100% and the “Stability pH 7.4: % Test Compound” value came to 0%.

Regarding `COc1cnc(-c2nn(Cc3c(F)cc(OCCOC(=O)[C@H](C)NC(=O)[C@@H](N)CCCCN)cc3F)c3ccccc23)nc1Nc1ccnc(C)c1` [Example 4-1-1, 2-{3,5-difluoro-4-[(3-{5-methoxy-4-[(2-methylpyridin-4-yl)amino]pyrimidin-2-yl}-1 H-indazol-1-yl)methyl]phenoxy}ethyl L-lysyl-L-alaninate, salt with trifluoroacetic acid], the “Stability pH 4: % Test Compound” value in data set [1] is 100%. Further, the “Stability pH 7.4: % Test Compound” value in data set [1] was 4%. The IC50 in data set [2] (Time 15 min) is 17 nM; in data set [2] (Time 30 min), 10 nM; in data set [2] (Time 60 min), 12 nM; in data set [2] (Time 90 min), 10 nM; in data set [2] (Time 120 min), 7.2 nM; in data set [2] (Time 240 min) it was 5.8 nM. For the same compound, the half-inhibitory concentration (IC50) in data set [2] (Time 1440 min) worked out at 2.7 nM.

Take `COc1cnc(-c2nn(Cc3c(F)cc(OCCOC(=O)[C@H](C)NC(=O)[C@@H](N)CCCCN)cc3F)c3ccccc23)nc1Nc1ccncc1` [Example 6-2-1, 2-[3,5-difluoro-4-({3-[5-methoxy-4-(pyridin-4-ylamino)pyrimidin-2-yl]-1 H-indazol-1-yl}methyl)phenoxy]ethyl L-lysyl-L-alaninate, salt with trifluoroacetic acid, reference compound]: in data set [1], the “Stability pH 4: % Test Compound” value is 100% and the “Stability pH 7.4: % Test Compound” value is given as 3%.

`COc1cnc(-c2nn(Cc3c(F)cc(OCCOC(=O)[C@H](C)NC(=O)[C@@H](N)CCCCN)cc3F)c3ccccc23)nc1Nc1ccnc(F)c1` [Example 4-1-4, 2-{3,5-difluoro-4-[(3-{4-[(2-fluoropyridin-4-yl)amino]-5-methoxypyrimidin-2-yl}-1H-indazol-1-yl)methyl]phenoxy}ethyl L-lysyl-L-alaninate, salt with trifluoroacetic acid]: in data set [1], the “Stability pH 4: % Test Compound” value is recorded as 100% and the “Stability pH 7.4: % Test Compound” value was determined as 9%.
